Results on 2 compounds are retold here after US20250382250A1, “STILBENE DERIVATIVE AS AHR AGONIST AND USE THEREOF” (NANJING GRITPHARMACO., LTD., priority 2022, published 2025).

One series concerns the target T1, AhR (Homo sapiens, UniProt P35869).
T1 construct: expressed in transfected cells; host or cells: HepG2
T1 sequence (P35869 11-848): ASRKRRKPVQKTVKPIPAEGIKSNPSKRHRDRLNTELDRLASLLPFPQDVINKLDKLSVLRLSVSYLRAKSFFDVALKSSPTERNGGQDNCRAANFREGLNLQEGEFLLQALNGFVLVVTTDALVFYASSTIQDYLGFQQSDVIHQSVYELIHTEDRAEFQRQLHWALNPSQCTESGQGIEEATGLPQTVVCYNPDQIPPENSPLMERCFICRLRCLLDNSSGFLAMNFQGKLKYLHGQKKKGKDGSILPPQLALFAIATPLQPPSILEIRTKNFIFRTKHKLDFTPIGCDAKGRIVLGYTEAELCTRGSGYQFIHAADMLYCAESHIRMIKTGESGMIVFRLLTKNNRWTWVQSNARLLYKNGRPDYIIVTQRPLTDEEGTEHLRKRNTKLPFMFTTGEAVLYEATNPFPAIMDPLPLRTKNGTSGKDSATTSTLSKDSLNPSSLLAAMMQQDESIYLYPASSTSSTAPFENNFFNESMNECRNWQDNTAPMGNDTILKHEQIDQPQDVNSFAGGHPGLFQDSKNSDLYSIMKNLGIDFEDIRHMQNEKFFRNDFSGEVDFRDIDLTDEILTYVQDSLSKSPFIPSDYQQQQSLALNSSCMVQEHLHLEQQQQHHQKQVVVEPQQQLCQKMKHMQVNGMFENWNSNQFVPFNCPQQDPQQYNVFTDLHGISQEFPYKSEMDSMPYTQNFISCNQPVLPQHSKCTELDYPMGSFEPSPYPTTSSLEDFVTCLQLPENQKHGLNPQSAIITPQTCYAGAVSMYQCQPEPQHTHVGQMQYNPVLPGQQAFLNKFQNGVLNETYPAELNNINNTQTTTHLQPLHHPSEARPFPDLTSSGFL
Briefly: AhR agonism luciferase reporter gene assay in transfected HepG2 cells. The format is cell-based. The conditions noted are these: 16 h, ratio of treatment group to blank. Here is the method:
When the cell confluence reached 80%, the culture medium was replaced with a fresh one, and the transfection working solution was added for transfection overnight. The formula of the working solution is as follows: 1 mL of Opti-MEM+7.5 μg of pCMV-AHR+7.5 μg of pTK-3×DRE-Luc+30 μL of lipo6000. • (2) Cell plating: The transfected cells were digested, prepared into a cell suspension at a concentration of 3×10^5 cells/mL, and then plated on a 96-well plate at 100 µL/well for adherent culture overnight. • (3) Formulation
The prepared drug-containing culture media and a blank culture medium were added to the 96-well plate described above at 100 μL/well.
For orientation: In a reporter assay the amount or activity of a reporter protein is the signal.

The next series relates to TNFa. In words: Regulatory effect on cytokine secretion in PHA-stimulated PBMCs: TNFa. The format is cell-based. The conditions noted are these: for TNFa: PBMCs, 15 μg/mL PHA, 24 h (PHA group 3649.21). The method, then:
(§1) • (1) Cells: […]; • (2) Cell plating and treatment: After the PBMCs were taken out from the liquid nitrogen tank and thawed, 80 μL of culture medium was added to a 96-well plate, and the cells were added at 200,000 cells/well. The culture media containing 2 μM or 0.2 μM compound 2 #, compound 6 #, or reference 1 # were added to the 96-well plate at 80 μL, at a final drug concentration of 1 μM or 0.1 μM per well. The plate was let stand for 1 h for pretreatment. After the pretreatment, the drug-containing medium was discarded, and 1 μM or 0.1 μM solution containing 15 μg/mL PHA (phytohemaggluyinin) was added at 80 μL/well. After 24 h of stimulation, the content of cytokines in the culture medium was detected. • Blank control group: The cells were treated with a normal culture medium with no drugs; • PHA group: A culture medium containing 15 μg/mL PHA but no compounds of the present disclosure was added at 80 μL/well.

Series [1] can be described thus: Ointment diffusion test, ex vivo rabbit skin. The format is in vitro ADME. The conditions noted are these: ointments: 2# 1.2 wt %, 6# 1.2 wt %, benvitimod 1.0 wt %, 32° C. The method, then:
(§2) Test compounds: compound 2 #ointment, 1.2 wt %; compound 6 #ointment, 1.2 wt %; benvitimod ointment, 1.0 wt %;
• (1) Preparation of ex vivo rabbit skin • (2) Preparation of receiving liquid: 100 mL of polyethylene glycol 400 solution was brought to a final volume of 250 mL with normal saline. The mixture was mixed well and stored at 4° C. Before each permeation in the receiving compartment, the system was preheated to 32° C. • (3) In vitro transdermal test: A drug transdermal diffusion apparatus was used to fix the processed rabbit skin between the supply and receiving compartments, with the stratum corneum facing the supply compartment. A constant temperature water bath circulation at 32° C. was maintained. The system was equilibrated for 30 min. Upon each replacement of the receiving liquid, the air at the lower layer was exhausted, and the liquid droplets on the skin surface were removed with paper. 0.5 g of the ointment was evenly smeared in the supply compartment. The system was stirred with a magnetic stirring at a rotation speed of 600 r/min. At 0.5, 1, 2, 3, 4, 5, 7, 9, 12, and 24 h, 1 mL of sample liquid was taken out from the receiving compartment and transferred into a liquid phase vial, and simultaneously, an equal amount of fresh receiving liquid at the same temperature was added. The liquid phase detection was conducted to calculate the drug permeation rate.

A further series deals with IL4. In words: Regulatory effect on cytokine secretion in PHA-stimulated PBMCs: IL4. The series is classed as cell-based. The conditions noted are these: for IL4: PBMCs, 15 μg/mL PHA, 24 h (PHA group 9.42). The method, then: as §1
Series [2] in a line: Drug permeation rate test, in vitro diffusion through semipermeable membrane. The format is in vitro ADME. To be noted: ointments: 2# 1.2 wt %, 6# 1.2 wt %, benvitimod 1.0 wt %, 32° C. Here is the method:
as §2
[drawing 90] • (1) Preparation of semipermeable membrane: The semipermeable membrane, which had been prepared in advance, was taken out from the refrigerator; • (2) Preparation of receiving liquid: 100 mL of polyethylene glycol 400 solution was brought to a final volume of 250 mL with normal saline. The mixture was mixed well and stored at 4° C. Before each permeation in the receiving compartment, the system was preheated to 32° C.; • (3) In vitro diffusion test: A drug transdermal diffusion apparatus was used to fix the processed semipermeable membrane between the supply and receiving compartments. A constant temperature water bath circulation at 32° C. was maintained. The system was equilibrated for 30 min. Upon each replacement of the receiving liquid, the air at the lower layer was exhausted. About 0.5 g of the ointment was evenly smeared in the supply compartment. The system was stirred with a magnetic stirring at a rotation speed of 600 r/min. At 0.5, 1, 2, 4, 6, and 24 h, 1 mL of sample liquid was taken out from the receiving compartment, and simultaneously, an equal amount of fresh receiving liquid at the same temperature was added;
The sampling time points were 0.5, 1, 2, 4, 6, and 24 h, and 1 mL of sample was directly transferred into a liquid phase vial. Simultaneously, an equal amount of fresh receiving liquid at the same temperature was added. The liquid phase detection was conducted to calculate the drug permeation rate.

On to `Oc1cc(/C=C/c2ccc(F)cc2)cc(O)c1C1CCCCC1` [Compound 6, (E)-2-cyclohexyl-5-(4-fluorostyryl)-1,3-benzenediol], for which the results for the “AhR receptor agonistic fold” value at AhR (drug concentration 0.1 μM) and on AhR (drug concentration 1 μM) were 6.6 ± 0.1 fold and 25.9 ± 0.4 fold, respectively. For the same compound, the figures for the TNFa in the series on TNFa (0.1 μM) and in the series with TNFa (1 μM) were 1433.29 pg/mL and 810.71 pg/mL, respectively. Besides, in the series on TNFa (1 μM), the “inhibitory effect on TNFa relative to reference 1# (benvitimod)” value was determined as 2 folds. Further, the “24-hour drug permeation rate (rank order)” value in series [1] and in series [2] was “benvitimod >2 #>6 #” in each case. Besides, the IL4 came to 4.62 pg/mL in the series on IL4 (0.1 μM) and 2.75 pg/mL with IL4 (1 μM). The “inhibitory effect on IL4 relative to reference 1# (benvitimod)” value with IL4 (1 μM) is 2 folds.

With `CC(C)c1c(O)cc(/C=C/c2ccccc2)cc1O` [Reference 1#, Benvitimod, reference compound], the “AhR receptor agonistic fold” value came to 3.2 ± 1.2 fold at AhR (drug concentration 0.1 μM) and 10.6 ± 1.0 fold on AhR (drug concentration 1 μM). Moreover, the TNFa is 2559.02 pg/mL in the series with TNFa (0.1 μM) and 2426.93 pg/mL in the series with TNFa (1 μM). Besides, the “24-hour drug permeation rate (rank order)” value in series [1] and in series [2] was “benvitimod >2 #>6 #” in each case. Also, the IL4 is listed as 9.30 pg/mL in the series on IL4 (0.1 μM) and 5.63 pg/mL in the series with IL4 (1 μM).
